Source: PubChem BioAssay AID1745844 (Carcinogenic Potency Database (CPDB), 2022)
Values joined by “and” are separate entries in the source; they are usually repeats but may differ in a detail not shown here. Identical values can stand only once. Active and inactive are the calls of the source. The rule behind the calls is not given here.

Tested on: rodent lifetime carcinogenesis bioassay, tumor incidence TD50
Assay: carcinogenic potency in animals, long-term in vivo studies, CPDB compilation (AID 1745844)

`[O-][Br+2]([O-])O` showed a TD50 (hamster, strain Syrian Golden, males, in drinking water, site: kidney, lesion: renal-cell tumor, dosed 89 weeks, study length 89 weeks) of 533 mg/kg/day, a TD50 (mouse, strain B6C3F1, females, in drinking water, site: any site (literature study), lesion: several types, types named in the paper, dosed 78 weeks, study length 104 weeks) of 477 mg/kg/day and a TD50 (mouse, strain B6C3F1, females, in drinking water, site: liver, lesion: adenoma, dosed 78 weeks, study length 104 weeks) of 1180 mg/kg/day. It also gave a TD50 (mouse, strain B6C3F1, females, in drinking water, site: liver, lesion: several types, types named in the paper, dosed 78 weeks, study length 104 weeks) of 1710 mg/kg/day, a TD50 (mouse, strain B6C3F1, females, in drinking water, site: lung, lesion: adenoma, dosed 78 weeks, study length 104 weeks) of 2030 mg/kg/day and a TD50 (mouse, strain B6C3F1, females, in drinking water, site: lung, lesion: several types, types named in the paper, dosed 78 weeks, study length 104 weeks) of 1050 mg/kg/day. For the same compound, the TD50 (mouse, strain B6C3F1, males, in drinking water, site: kidney, lesion: renal-cell carcinoma, dosed 100 weeks, study length 100 weeks) was 92.5 mg/kg/day, the TD50 (mouse, strain B6C3F1, males, in drinking water, site: kidney, lesion: several types, types named in the paper, dosed 100 weeks, study length 100 weeks) was 53.8 mg/kg/day and the TD50 (mouse, strain Theiller's Original, females, in feed, site: liver, lesion: hemangioma, dosed 80 weeks, study length 80 weeks) was 347 mg/kg/day (inactive). For the same compound, the carcinogen call (mouse, strain Theiller's Original, males, in feed, site: any site (literature study), lesion: malignant tumor, dosed 80 weeks, study length 80 weeks) was “negative (inactive)”, the carcinogen call (mouse, strain Theiller's Original, males, in feed, site: liver, lesion: one or several types, types not named, dosed 80 weeks, study length 80 weeks) was “negative (inactive)” and the TD50 (rat, strain F344/DuCrj, males, in drinking water, site: kidney, lesion: adenocarcinoma, dosed 26 weeks, study length 104 weeks) was 79.2 mg/kg/day. For the same compound, the TD50 (rat, strain F344/DuCrj, males, in drinking water, site: kidney, lesion: adenocarcinoma, dosed 39 weeks, study length 104 weeks) was 16.9 mg/kg/day, the TD50 (rat, strain F344/DuCrj, males, in drinking water, site: kidney, lesion: adenocarcinoma, dosed 52 weeks, study length 104 weeks) was 35.5 mg/kg/day and the TD50 (rat, strain F344/DuCrj, males, in drinking water, site: kidney, lesion: adenocarcinoma, dosed 104 weeks, study length 104 weeks) was 105 mg/kg/day and 224 mg/kg/day. It also gave a TD50 (rat, strain F344/DuCrj, males, in drinking water, site: kidney, lesion: adenoma, dosed 26 weeks, study length 104 weeks) of 6.67 mg/kg/day, a TD50 (rat, strain F344/DuCrj, males, in drinking water, site: kidney, lesion: adenoma, dosed 39 weeks, study length 104 weeks) of 5.57 mg/kg/day and a TD50 (rat, strain F344/DuCrj, males, in drinking water, site: kidney, lesion: adenoma, dosed 52 weeks, study length 52 weeks) of 4.98 mg/kg/day. The TD50 (rat, strain F344/DuCrj, males, in drinking water, site: kidney, lesion: adenoma, dosed 52 weeks, study length 104 weeks) was 10.1 mg/kg/day, the TD50 (rat, strain F344/DuCrj, males, in drinking water, site: kidney, lesion: adenoma, dosed 104 weeks, study length 104 weeks) was 48 mg/kg/day and 35.7 mg/kg/day and the TD50 (rat, strain F344/DuCrj, males, in drinking water, site: kidney, lesion: renal-cell tumor, dosed 104 weeks, study length 104 weeks) was 28.9 mg/kg/day. For the same compound, the TD50 (rat, strain F344/DuCrj, males, in drinking water, site: kidney, lesion: several types, types named in the paper, dosed 26 weeks, study length 104 weeks) was 6.67 mg/kg/day, the TD50 (rat, strain F344/DuCrj, males, in drinking water, site: kidney, lesion: several types, types named in the paper, dosed 39 weeks, study length 104 weeks) was 4.81 mg/kg/day and the TD50 (rat, strain F344/DuCrj, males, in drinking water, site: kidney, lesion: several types, types named in the paper, dosed 52 weeks, study length 104 weeks) was 8.32 mg/kg/day. The TD50 (rat, strain F344/DuCrj, males, in drinking water, site: kidney, lesion: several types, types named in the paper, dosed 104 weeks, study length 104 weeks) was 28.7 mg/kg/day, the TD50 (rat, strain F344/DuCrj, males, in drinking water, site: liver, lesion: neoplastic nodule, dosed 104 weeks, study length 104 weeks) was 53.2 mg/kg/day and the TD50 (rat, strain F344/DuCrj, males, in drinking water, site: peritoneum, lesion: mesothelioma, dosed 26 weeks, study length 104 weeks) was 7.84 mg/kg/day. It also gave a TD50 (rat, strain F344/DuCrj, males, in drinking water, site: peritoneum, lesion: mesothelioma, dosed 39 weeks, study length 104 weeks) of 14 mg/kg/day, a TD50 (rat, strain F344/DuCrj, males, in drinking water, site: peritoneum, lesion: mesothelioma, dosed 52 weeks, study length 52 weeks) of 25.6 mg/kg/day and a TD50 (rat, strain F344/DuCrj, males, in drinking water, site: peritoneum, lesion: mesothelioma, dosed 52 weeks, study length 104 weeks) of 19.4 mg/kg/day. The TD50 (rat, strain F344/DuCrj, males, in drinking water, site: peritoneum, lesion: mesothelioma, dosed 104 weeks, study length 104 weeks) was 12.4 mg/kg/day and 19.5 mg/kg/day, the TD50 (rat, strain F344/DuCrj, males, in drinking water, site: thyroid gland, lesion: follicular-cell adenoma, dosed 104 weeks, study length 104 weeks) was 59.5 mg/kg/day and the TD50 (rat, strain F344/DuCrj, males, in drinking water, site: thyroid gland, lesion: follicular-cell tumor, dosed 26 weeks, study length 104 weeks) was 11.3 mg/kg/day. The TD50 (rat, strain F344/DuCrj, males, in drinking water, site: thyroid gland, lesion: follicular-cell tumor, dosed 52 weeks, study length 104 weeks) was 19.4 mg/kg/day, the TD50 (rat, strain F344/DuCrj, males, in drinking water, site: thyroid gland, lesion: follicular-cell tumor, dosed 104 weeks, study length 104 weeks) was 39.8 mg/kg/day and 54.7 mg/kg/day and the TD50 (rat, strain Fischer 344, females, in drinking water, site: any site (literature study), lesion: several types, types named in the paper, dosed 110 weeks, study length 111 weeks) was 9.05 mg/kg/day. For the same compound, the TD50 (rat, strain Fischer 344, females, in drinking water, site: kidney, lesion: adenocarcinoma, dosed 110 weeks, study length 111 weeks) was 16.4 mg/kg/day, the TD50 (rat, strain Fischer 344, females, in drinking water, site: kidney, lesion: adenoma, dosed 110 weeks, study length 111 weeks) was 87.5 mg/kg/day and the TD50 (rat, strain Fischer 344, females, in drinking water, site: kidney, lesion: several types, types named in the paper, dosed 110 weeks, study length 111 weeks) was 13.7 mg/kg/day. For the same compound, the TD50 (rat, strain Fischer 344, females, in drinking water, site: thyroid gland, lesion: several types, types named in the paper, dosed 110 weeks, study length 111 weeks) was 97.6 mg/kg/day, the TD50 (rat, strain Fischer 344, males, in drinking water, site: kidney, lesion: adenocarcinoma, dosed 110 weeks, study length 111 weeks) was 12.6 mg/kg/day and the TD50 (rat, strain Fischer 344, males, in drinking water, site: kidney, lesion: adenoma, dosed 110 weeks, study length 111 weeks) was 46.2 mg/kg/day. It also gave a TD50 (rat, strain Fischer 344, males, in drinking water, site: kidney, lesion: renal-cell adenoma, dosed 52 weeks, study length 52 weeks) of 16.7 mg/kg/day, a TD50 (rat, strain Fischer 344, males, in drinking water, site: kidney, lesion: renal-cell adenoma, dosed 77 weeks, study length 77 weeks) of 15.3 mg/kg/day and a TD50 (rat, strain Fischer 344, males, in drinking water, site: kidney, lesion: renal-cell adenoma, dosed 100 weeks, study length 100 weeks) of 31.1 mg/kg/day. The TD50 (rat, strain Fischer 344, males, in drinking water, site: kidney, lesion: renal-cell carcinoma, dosed 100 weeks, study length 100 weeks) was 62.2 mg/kg/day, the TD50 (rat, strain Fischer 344, males, in drinking water, site: kidney, lesion: several types, types named in the paper, dosed 100 weeks, study length 100 weeks) was 20.8 mg/kg/day and the TD50 (rat, strain Fischer 344, males, in drinking water, site: kidney, lesion: several types, types named in the paper, dosed 110 weeks, study length 111 weeks) was 9.62 mg/kg/day. For the same compound, the TD50 (rat, strain Fischer 344, males, in drinking water, site: liver, lesion: several types, types named in the paper, dosed 110 weeks, study length 111 weeks) was 164 mg/kg/day, the TD50 (rat, strain Fischer 344, males, in drinking water, site: peritoneum, lesion: mesothelioma, dosed 110 weeks, study length 111 weeks) was 25.3 mg/kg/day and the TD50 (rat, strain Fischer 344, males, in drinking water, site: thyroid gland, lesion: follicular-cell adenoma, dosed 100 weeks, study length 100 weeks) was 35.2 mg/kg/day. It also gave a TD50 (rat, strain Fischer 344, males, in drinking water, site: thyroid gland, lesion: follicular-cell carcinoma, dosed 77 weeks, study length 77 weeks) of 34.8 mg/kg/day, a TD50 (rat, strain Fischer 344, males, in drinking water, site: thyroid gland, lesion: follicular-cell carcinoma, dosed 100 weeks, study length 100 weeks) of 62.9 mg/kg/day and a TD50 (rat, strain Fischer 344, males, in drinking water, site: thyroid gland, lesion: several types, types named in the paper, dosed 77 weeks, study length 77 weeks) of 21.8 mg/kg/day. The TD50 (rat, strain Fischer 344, males, in drinking water, site: thyroid gland, lesion: several types, types named in the paper, dosed 100 weeks, study length 100 weeks) was 22.2 mg/kg/day, the TD50 (rat, strain Fischer 344, males, in drinking water, site: tunica vaginalis, lesion: mesothelioma, dosed 52 weeks, study length 52 weeks) was 36.1 mg/kg/day and the TD50 (rat, strain Fischer 344, males, in drinking water, site: tunica vaginalis, lesion: mesothelioma, dosed 77 weeks, study length 77 weeks) was 15.3 mg/kg/day. For the same compound, the TD50 (rat, strain Fischer 344, males, in drinking water, site: tunica vaginalis, lesion: mesothelioma, dosed 100 weeks, study length 100 weeks) was 11.1 mg/kg/day.
